Data taken from the supplement of paper PMC11061612.

Experiments:
Test in all cases: Bliss excess, mean over the matrix (fraction); higher = more synergy
[1] = system: LN-229 (Glioblastoma)
Outline: (§1)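 Cell lines in DMEM/F12 or RPMI with 10% FBS were plated in 1536-well plates, held 24 hours at 37°C, 5% CO2, then given two-drug dose matrices for 72 hours (DMSO typically 0.2%). Viability was read by CellTiter-Glo 2.0 luminescence and scaled as inhibition from 0 (vehicle wells) to 1 (blank wells). Combination Emax is the second-highest inhibition in the matrix; Bliss excess is observed combination effect minus expected EA + EB − EA·EB, EA and EB being single-agent effects.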

[2] = system: NCI-H2342 (Lung Adenocarcinoma)
Outline: as §1

[3] = system: RERF-LC-Sq1 (Squamous Cell Lung Carcinoma)
Outline: as §1

[4] = system: GB-1 (Glioblastoma)
Outline: as §1

[5] = system: IST-MES1 (Mesothelioma)
Outline: as §1

[6] = system: MFE-280 (Endometrial Carcinoma)
Outline: as §1

[7] = system: CAL-120 (Breast Carcinoma)
Outline: as §1

[8] = system: VAL (B-Cell Non-Hodgkin's Lymphoma)
Outline: as §1

[9] = system: HSC-39 (Gastric Carcinoma)
Outline: as §1

[10] = system: COLO-680N (Esophageal Squamous Cell Carcinoma)
Outline: as §1

[11] = system: RCM-1 (Colorectal Carcinoma)
Outline: as §1

[12] = system: RERF-GC-1B (Gastric Carcinoma)
Outline: as §1

[13] = system: HEC-1 (Endometrial Carcinoma)
Outline: as §1

[14] = system: LB996-RCC (Kidney Carcinoma)
Outline: as §1

[15] = system: GP5d (Colorectal Carcinoma)
Outline: as §1

[16] = system: MKN45 (Gastric Carcinoma)
Outline: as §1

[17] = system: NCI-H23 (Lung Adenocarcinoma)
Outline: as §1

[18] = system: 23132-87 (Gastric Carcinoma)
Outline: as §1

[19] = system: SU-DHL-10 (B-Cell Non-Hodgkin's Lymphoma)
Outline: as §1

Row | Compound | Bliss excess [1] | Bliss excess [2] | Bliss excess [3] | Bliss excess [4] | Bliss excess [5] | Bliss excess [6] | Bliss excess [7] | Bliss excess [8] | Bliss excess [9] | Bliss excess [10] | Bliss excess [11] | Bliss excess [12] | Bliss excess [13] | Bliss excess [14] | Bliss excess [15] | Bliss excess [16] | Bliss excess [17] | Bliss excess [18] | Bliss excess [19]
1 | CCN(CCO)CCCOc1ccc2c(Nc3cc(CC(=O)Nc4cccc(F)c4)[nH]n3)ncnc2c1 [AZD2811] + O=C(c1cc(Cc2n[nH]c(=O)c3ccccc23)ccc1F)N1CCN(C(=O)C2CC2)CC1 [Olaparib] (first compound max 1 µM, 7x7, partner max 10 µM) | -0.0223 | -0.02 | 0.0361 | -0.0218 | -0.0102 | 0.0174 | 0.0019 | -0.0246 | 0.0203 | -0.0439 | -0.04 | -0.0572 | -0.0059 | 0.025 | -0.0785 | -0.0434 | 0.0076 | 0.0143 | -0.187
2 | C[C@@H]1COCCN1c1cc(C2([S@](C)(=N)=O)CC2)nc(-c2ccnc3[nH]ccc23)n1 [AZD6738] + O=C(c1cc(Cc2n[nH]c(=O)c3ccccc23)ccc1F)N1CCN(C(=O)C2CC2)CC1 [Olaparib] (first compound max 10 µM, 7x7, partner max 10 µM) | -0.0713 | -0.0089 | -0.0101 | 0.012 | 0.0228 | 0.0368 | 0.0364 | -0.0708 | 0.025 | 0.0109 | -0.101 | -0.0439 | -0.0041 | 0.0143 | -0.0092 | -0.0683 | 0.0049 | 0.0507 | -0.0235
3 | Cc1cc2ncnn2cc1Nc1ncc2c(n1)n(C1CCOCC1)c(=O)n2C [AZD7648] + C=CCn1c(=O)c2cnc(Nc3ccc(N4CCN(C)CC4)cc3)nc2n1-c1cccc(C(C)(C)O)n1 [AZD1775] (first compound max 10 µM, partner max 1 µM) | -0.0067 | -0.0023 | 0.0053 | 0.0089 | -0.002 | -0.0406 | 0.0463 | -0.0919 | -0.0357 | -0.012 | 0.0248 | -0.0936 | -0.0318 | -0.0252 | -0.0431 | -0.0887 | -0.0363 | -0.0401 | -0.0191
4 | Cc1cc2ncnn2cc1Nc1ncc2c(n1)n(C1CCOCC1)c(=O)n2C [AZD7648] + CCN(CCO)CCCOc1ccc2c(Nc3cc(CC(=O)Nc4cccc(F)c4)[nH]n3)ncnc2c1 [AZD2811] (first compound max 10 µM, 7x7, partner max 1 µM) | 0.0148 | -0.0084 | -0.0048 | -0.0124 | 0.0188 | 0.019 | -0.0528 | -0.0799 | -0.0371 | -0.0458 | -0.032 | 0.0209 | -0.0269 | -0.0098 | 0.0648 | -0.0635 | 0.016 | -0.0151 | -0.0765
5 | Cc1cc2ncnn2cc1Nc1ncc2c(n1)n(C1CCOCC1)c(=O)n2C [AZD7648] + CN(C)CCCOc1ccc(-c2ccc3ncc4c(c3c2)n(C2CCOCC2)c(=O)n4C)cn1 [AZD0156] (first compound max 10 µM, 7x7, partner max 1 µM) | -0.0161 | -0.0237 | 0.0114 | -0.0089 | -0.0353 | 0.0058 | -0.0197 | -0.0921 | -0.036 | -0.0078 | -0.0041 | -0.0141 | -0.0239 | -0.0542 | -0.0119 | -0.0268 | -0.0031 | -0.0108 | 0.001
6 | Cc1cc2ncnn2cc1Nc1ncc2c(n1)n(C1CCOCC1)c(=O)n2C [AZD7648] + C[C@@H]1COCCN1C2=NC(=NC(=C2)C3(CC3)[S@](=N)(=O)C)C4=C5C=CNC5=NC=C4 [AZD6738] (first compound max 10 µM, 7x7, partner max 10 µM) | -0.0085 | 0.0271 | -0.0231 | -0.017 | 0.0176 | 0.0174 | 0.0192 | -0.0813 | 0.0166 | 0.0237 | 0.0223 | 0.0094 | -0.0339 | -0.0199 | -0.0401 | -0.0406 | -0.0617 | -0.0027 | -0.0398
7 | CCc1c2c(nc3ccc(O)cc13)-c1cc3c(c(=O)n1C2)COC(=O)[C@]3(O)CC [SN-38] + O=C(c1cc(Cc2n[nH]c(=O)c3ccccc23)ccc1F)N1CCN(C(=O)C2CC2)CC1 [Olaparib] (first compound max 0.3 µM, 7x7, partner max 10 µM) | – | 0.0154 | 0.0502 | 0.0539 | -0.0582 | 0.0167 | 0.0417 | 0.036 | -0.0724 | 0.0012 | -0.0176 | – | 0.0181 | -0.0651 | 0.143 | -0.0495 | – | 0.0174 | –
